Columns and labels:
PDGFRβ = molecular target: T1, PDGFRβ (Homo sapiens, UniProt P09619); assay: In vitro phospho-Tyr751 PDGFRβ ELISA assay in MG63 osteosarcoma cells (Test b); assay type: cell-based; conditions: MG63 cells stimulated with PDGFBB, read-out: IC50 versus phospho-Tyr751 formation in PDGFRβ
T1 construct: endogenous in cells; host or cells: MG63 osteosarcoma cells (ATCC)
Protocol: This assay uses a conventional ELISA method to determine the ability of test compounds to inhibit phosphorylation of tyrosine in PDGFRβ.
An MG63 osteosarcoma cell line [American Type Culture Collection (ATCC) CCL 1427] was routinely maintained at 37° C. with 7.5% CO2 in Dulbecco's modified Eagle's growth medium (DMEM; Sigma-Aldrich; Catalogue No. D6546) containing 10% foetal calf serum (FCS; Sigma-Aldrich; Catalogue No. F7524) and 2 mM L-glutamine (Invitrogen Ltd., Paisley, UK; Catalogue No. 25030-024).
For the assay, the cells were detached from the culture flask using a trypsin/ethylenediaminetetraacetic acid (EDTA) mixture (Invitrogen Ltd.; Catalogue No. 15400-054) and resuspended in a test medium comprising DMEM without phenol red (Sigma-Aldrich; Catalogue No. D5921) containing 1% charcoal-stripped foetal calf serum (FCS) (Sigma-Aldrich; Catalogue No. F7524, stripped by incubation with dextran-coated activated charcoal at 55° C. for 30 minutes with continuous stirring followed by removal of the charcoal by centrifugation and filter sterilisation) and 2 mM L-glutamine (Invitrogen Ltd., Catalogue No. 25030-024) to give 6×10^4 cells per ml. […]

KDR (VEGFR2) = molecular target: T2, KDR (VEGFR2) (Homo sapiens, UniProt P35968); assay: In vitro phospho-KDR ELISA assay in HUVECs (Test c); assay type: cell-based; conditions: HUVECs stimulated with VEGF, read-out: IC50 versus phospho-tyrosine formation in KDR
T2 construct: phosphorylation of KDR expressed in human umbilical vein endothelial cells (HUVECs); host or cells: HUVECs (primary human umbilical vein endothelial cells)
Protocol: This assay uses a conventional ELISA method to determine the ability of test compounds to inhibit phosphorylation of tyrosine in KDR (VEGFR2).
Human umbilical vein endothelial cells (HUVECs; PromoCell) were routinely incubated at 37° C. with 7.5% CO2 in ‘growth medium’ comprising MCDB 131 (Gibco Catalogue No. 10372-019; 500 ml) containing L-glutamine (Sigma Catalogue No. G3126; 0.848 g), 1% Penicillin Streptomycin (Gibco Catalogue No. 15140-122) and Fetal Bovine Serum (PAA Laboratories Catalogue No. A15-043; 50 ml).
For the assay, the cells were detached from the culture flask using a trypsin/ethylenediaminetetraacetic acid (EDTA) mixture (Invitrogen Ltd.; Catalogue No. 15400-054) and resuspended in ‘test medium’ comprising MCDB 131 (500 ml) containing L-glutamine (0.848 g), 1% Penicillin Streptomycin and Fetal Bovine Serum (10 ml). Aliquots (1 ml) were seeded into each well of a 24 well tissue culture plate (Corning Life Sciences; Catalogue No. 3527) to give a density of approximately 3.5×10^4 cells per well. The cells were incubated overnight at 37° C. with 7.5% CO2 to allow adherence to the well surface. The following morning the assay medium was decanted and an aliquot (0.5 ml) of ‘serum free medium’ comprising MCDB 131 (500 ml) containing L-glutamine (0.848 g) and 1% Penicillin Streptomycin was added to each well. The plates were incubated at 37° C. for 2.5 hours. […]

T2 sequence (P35968 20-1356): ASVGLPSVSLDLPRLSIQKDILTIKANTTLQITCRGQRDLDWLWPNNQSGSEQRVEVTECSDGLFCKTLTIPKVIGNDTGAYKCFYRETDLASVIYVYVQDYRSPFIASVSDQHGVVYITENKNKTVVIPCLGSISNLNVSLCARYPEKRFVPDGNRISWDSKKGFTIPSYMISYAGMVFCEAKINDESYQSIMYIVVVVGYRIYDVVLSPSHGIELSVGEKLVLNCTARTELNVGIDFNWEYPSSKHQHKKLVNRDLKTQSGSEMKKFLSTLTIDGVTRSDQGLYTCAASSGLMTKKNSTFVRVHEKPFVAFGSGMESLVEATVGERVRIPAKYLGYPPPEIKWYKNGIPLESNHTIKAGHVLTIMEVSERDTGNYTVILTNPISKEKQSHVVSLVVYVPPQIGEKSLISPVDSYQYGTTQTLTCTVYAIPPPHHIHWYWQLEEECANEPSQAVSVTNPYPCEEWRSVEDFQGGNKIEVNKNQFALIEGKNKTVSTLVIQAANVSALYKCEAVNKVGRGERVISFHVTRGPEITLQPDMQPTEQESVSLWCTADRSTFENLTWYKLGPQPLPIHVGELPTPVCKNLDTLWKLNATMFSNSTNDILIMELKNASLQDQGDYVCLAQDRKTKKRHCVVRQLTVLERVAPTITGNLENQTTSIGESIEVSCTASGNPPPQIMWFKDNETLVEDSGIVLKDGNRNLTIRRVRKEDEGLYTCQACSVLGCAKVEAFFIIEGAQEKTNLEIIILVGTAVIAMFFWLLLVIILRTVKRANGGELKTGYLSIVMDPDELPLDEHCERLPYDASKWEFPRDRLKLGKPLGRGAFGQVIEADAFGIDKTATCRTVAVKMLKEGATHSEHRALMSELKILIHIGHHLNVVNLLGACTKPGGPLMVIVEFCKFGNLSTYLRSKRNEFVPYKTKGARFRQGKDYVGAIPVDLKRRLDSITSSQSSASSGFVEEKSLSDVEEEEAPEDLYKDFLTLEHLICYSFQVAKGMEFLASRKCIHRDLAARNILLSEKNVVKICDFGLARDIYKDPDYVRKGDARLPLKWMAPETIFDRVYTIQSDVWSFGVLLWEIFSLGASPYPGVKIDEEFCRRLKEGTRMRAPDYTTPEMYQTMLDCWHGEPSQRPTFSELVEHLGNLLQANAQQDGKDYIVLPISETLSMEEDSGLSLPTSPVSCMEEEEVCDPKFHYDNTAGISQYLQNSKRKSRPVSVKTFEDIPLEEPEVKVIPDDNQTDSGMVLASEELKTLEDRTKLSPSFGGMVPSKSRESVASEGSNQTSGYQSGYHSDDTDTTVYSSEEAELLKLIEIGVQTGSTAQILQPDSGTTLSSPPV
T1 sequence (P09619 33-1106): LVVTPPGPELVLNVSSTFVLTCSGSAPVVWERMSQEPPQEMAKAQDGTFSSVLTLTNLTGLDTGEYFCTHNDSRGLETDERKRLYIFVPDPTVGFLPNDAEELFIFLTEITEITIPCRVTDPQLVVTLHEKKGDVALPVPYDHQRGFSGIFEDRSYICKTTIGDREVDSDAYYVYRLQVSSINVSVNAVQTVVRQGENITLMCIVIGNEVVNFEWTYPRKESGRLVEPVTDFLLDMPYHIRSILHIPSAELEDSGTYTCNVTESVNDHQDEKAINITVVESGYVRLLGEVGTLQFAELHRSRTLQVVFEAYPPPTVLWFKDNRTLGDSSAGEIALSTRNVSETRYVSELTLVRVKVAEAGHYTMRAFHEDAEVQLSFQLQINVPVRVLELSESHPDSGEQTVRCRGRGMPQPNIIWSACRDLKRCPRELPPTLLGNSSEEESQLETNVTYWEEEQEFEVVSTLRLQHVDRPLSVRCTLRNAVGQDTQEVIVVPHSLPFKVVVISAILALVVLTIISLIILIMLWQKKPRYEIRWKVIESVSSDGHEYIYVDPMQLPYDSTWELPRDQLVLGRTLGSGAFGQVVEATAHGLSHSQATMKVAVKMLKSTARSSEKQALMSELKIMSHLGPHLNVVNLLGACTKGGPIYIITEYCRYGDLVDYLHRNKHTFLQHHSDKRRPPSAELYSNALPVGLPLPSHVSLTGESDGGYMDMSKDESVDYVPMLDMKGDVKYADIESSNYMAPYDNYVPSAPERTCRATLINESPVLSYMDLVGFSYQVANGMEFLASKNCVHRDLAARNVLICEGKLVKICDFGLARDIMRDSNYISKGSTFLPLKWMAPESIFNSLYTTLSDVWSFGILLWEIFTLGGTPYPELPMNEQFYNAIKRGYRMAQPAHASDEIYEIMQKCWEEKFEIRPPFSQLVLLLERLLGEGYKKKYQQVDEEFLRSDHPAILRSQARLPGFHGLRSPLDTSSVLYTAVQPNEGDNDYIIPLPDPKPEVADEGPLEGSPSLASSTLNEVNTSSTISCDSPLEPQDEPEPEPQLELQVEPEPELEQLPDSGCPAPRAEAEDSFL

Compound | IC50 (PDGFRβ) | IC50 (KDR (VEGFR2))
CCn1cc(NC(=O)Cc2ncc(Oc3ccnc4cc(OC)c(OC)cc34)cn2)cn1 [Example 1, N-(1-ethylpyrazol-4-yl)-2-[5-(6,7-dimethoxyquinolin-4-yloxy)pyrimidin-2-yl]acetamide] | ~7 nM | ~1000 nM
CCc1cc(NC(=O)Cc2ncc(Oc3ccnc4cc(OC)c(OC)cc34)cn2)n[nH]1 [N-(5-ethyl-1H-pyrazol-3-yl)-2-[5-(6,7-dimethoxyquinolin-4-yloxy)pyrimidin-2-yl]acetamide] | ~6 nM | ~700 nM
